Results published in patent US9346795B2, “Substituted sulfonamides useful as antiapoptotic Bcl inhibitors” (Bristol-Myers Squibb Company, priority 2011, dated 2016).

What was measured:
Bcl-xL = Bcl-xL (Homo sapiens (Human), UniProt Q07817); experiment: Bcl-xL/Bim Fluorescence Resonance Energy Transfer Assay (FRET); type: binding
Description: Bcl-xL/Bim Fluorescence Resonance Energy Transfer Assay (FRET) The assays were performed in black flat-bottom 384-well plates. The final assay volume was 55 μl prepared from additions of Biotin-Bcl-xL (Bcl-xL: GENBANK® Accession No. […] The reaction was incubated at room temperature for 60 minutes. After 60 minutes, 5 μL of Streptavidin-Terbium FRET detection reagent (Perkin Elmer) was added to the reaction mixture and incubated at room temperature in the dark for 30 mins. […] Compounds were dissolved at 10 mM in dimethylsulfoxide (DMSO) and evaluated at eleven concentrations. IC50 values were derived by non-linear regression analysis.

Bcl-2 = Bcl-2 (Homo sapiens (Human), UniProt P10415); experiment: Bcl-2/Bim Fluorescence Polarization Assay (FPA); type: binding
Chain of Bcl-2 (P10415 whole entry): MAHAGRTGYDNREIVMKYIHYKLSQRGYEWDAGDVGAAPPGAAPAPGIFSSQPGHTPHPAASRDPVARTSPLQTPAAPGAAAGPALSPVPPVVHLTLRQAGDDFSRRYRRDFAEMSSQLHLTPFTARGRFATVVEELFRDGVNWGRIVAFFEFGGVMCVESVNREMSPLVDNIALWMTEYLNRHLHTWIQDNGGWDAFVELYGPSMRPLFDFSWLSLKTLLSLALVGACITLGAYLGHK
Description: Bcl-2/Bim Fluorescence Polarization Assay (FPA)
The assays were performed in black flat-bottom 384-well plates. […] The reaction was incubated at room temperature for 60 minutes and fluorescence polarization of the reaction was detected on the LJL Plate Reader. Inhibition data were calculated from mP values generated by the no protein control reactions for 100% inhibition and vehicle-only reactions for 0% inhibition. The final concentrations of reagents in the assay were 4.9 nM BCL-2, 5 nM fluoresceinated 18-mer BIM peptide and 1% DMSO. […] Compounds were dissolved at 10 mM in dimethylsulfoxide (DMSO) and evaluated at eleven concentrations. IC50 values were derived by non-linear regression analysis.

Chain of Bcl-xL (Q07817 whole entry): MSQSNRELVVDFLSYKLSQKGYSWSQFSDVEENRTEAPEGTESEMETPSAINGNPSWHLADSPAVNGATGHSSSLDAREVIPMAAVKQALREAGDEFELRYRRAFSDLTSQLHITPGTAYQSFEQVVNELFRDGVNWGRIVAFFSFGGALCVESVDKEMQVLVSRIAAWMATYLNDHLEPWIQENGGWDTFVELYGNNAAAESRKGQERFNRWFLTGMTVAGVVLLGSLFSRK

SMILES	IC50 (Bcl-xL) [nM]	IC50 (Bcl-2) [nM]
CCCCN(CCCC)C(=O)c1nn(-c2ccc(C(=O)NS(=O)(=O)c3ccc4c(Cl)ccc(Cl)c4c3)cc2C(=O)N2CCc3ccccc3C2)c(C)c1Cl [Example 44, N,N-dibutyl-4-chloro-1-(4-(5,8-dichloronaphthalen-2-ylsulfonylcarbamoyl)-2-(1,2,3,4-tetrahydroisoquinoline-2-carbonyl)phenyl)-5-methyl-1H-pyrazole-3-carboxamide]	30	7.25
CCCCN(CCCC)C(=O)c1nn(-c2ccc(C(=O)NS(=O)(=O)c3ccc4ccc(C(=O)N5CCN(C)CC5)cc4c3)cc2C(=O)N2CCc3ccccc3C2)c(C)c1Cl [Example 46, N,N-Dibutyl-4-chloro-5-methyl-1-(4-(7-(4-methylpiperazine-1-carbonyl)naphthalen-2-ylsulfonylcarbamoyl)-2-(1,2,3,4-tetrahydroisoquinoline-2-carbonyl)phenyl)-1H-pyrazole-3-carboxamide]	40	90
CCCCN(CCCC)C(=O)c1nn(-c2ccc(C(=O)NS(=O)(=O)c3ccc4ccc(C(=O)N(C)C)cc4c3)cc2C(=O)N2CCc3ccccc3C2)c(C)c1Cl [Example 48, N,N-Dibutyl-4-chloro-1-(4-(7-(dimethylcarbamoyl)naphthalen-2-ylsulfonylcarbamoyl)-2-(1,2,3,4-tetrahydroisoquinoline-2-carbonyl)phenyl)-5-methyl-1H-pyrazole-3-carboxamide]	80	150
CCCCN(CCCC)C(=O)c1nn(-c2ccc(C(=O)NS(=O)(=O)c3ccc4c(c3)CCN4CC)cc2C(=O)N2CCc3ccccc3C2)c(C)c1Cl [Example 53, N,N-dibutyl-4-chloro-1-(4-(1-ethylindolin-5-ylsulfonylcarbamoyl)-2-(1,2,3,4-tetrahydroisoquinoline-2-carbonyl)phenyl)-5-methyl-1H-pyrazole-3-carboxamide]	10	60
CCCCN(CCCC)C(=O)c1nn(-c2ccc(C(=O)NS(=O)(=O)c3ccc4c(c3)CCN4C(=O)C3CCCCC3)cc2C(=O)N2CCc3ccccc3C2)c(C)c1Cl [Example 55, N,N-dibutyl-4-chloro-1-(4-(1-(cyclohexanecarbonyl)indolin-5-ylsulfonylcarbamoyl)-2-(1,2,3,4-tetrahydroisoquinoline-2-carbonyl)phenyl)-5-methyl-1H-pyrazole-3-carboxamide]	230	250
CCCCN(CCCC)C(=O)c1nn(-c2ccc(C(=O)NS(=O)(=O)c3ccc4c(c3)CCN4Cc3ccc(Cl)c(Cl)c3)cc2C(=O)N2CCc3ccccc3C2)c(C)c1Cl [Example 59, N,N-dibutyl-4-chloro-1-(4-(1-(3,4-dichlorobenzyl)indolin-5-ylsulfonylcarbamoyl)-2-(1,2,3,4-tetrahydroisoquinoline-2-carbonyl)phenyl)-5-methyl-1H-pyrazole-3-carboxamide]	40	20
CCCCN(CCCC)C(=O)c1nn(-c2ccc(C(=O)NS(=O)(=O)c3ccc4c(c3)CCN4C(=O)Cc3ccc(Cl)c(Cl)c3)cc2C(=O)N2CCc3ccccc3C2)c(C)c1Cl [Example 64, N,N-dibutyl-4-chloro-1-(4-(1-(2-(3,4-dichlorophenyl)acetyl)indolin-5-ylsulfonylcarbamoyl)-2-(1,2,3,4-tetrahydroisoquinoline-2-carbonyl)phenyl)-5-methyl-1H-pyrazole-3-carboxamide]	2450	200
CCCCN(CCCC)C(=O)c1nn(-c2ccc(C(=O)NS(=O)(=O)c3ccc4c(c3)CCN4CCSc3ccccc3)cc2C(=O)N2CCc3ccccc3C2)c(C)c1Cl [Example 67, N,N-dibutyl-4-chloro-5-methyl-1-(4-(1-(2-(phenylthio)ethyl)indolin-5-ylsulfonylcarbamoyl)-2-(1,2,3,4-tetrahydroisoquinoline-2-carbonyl)phenyl)-1H-pyrazole-3-carboxamide]	60	50
CCCCN(CCCC)C(=O)c1nn(-c2ccc(C(=O)NS(=O)(=O)c3ccc4c(ccn4Cc4ccc(Cl)c(Cl)c4)c3)cc2C(=O)N2CCc3ccccc3C2)c(C)c1Cl [Example 68, N,N-dibutyl-4-chloro-1-(4-(1-(3,4-dichlorobenzyl)-1H-indol-5-ylsulfonylcarbamoyl)-2-(1,2,3,4-tetrahydroisoquinoline-2-carbonyl)phenyl)-5-methyl-1H-pyrazole-3-carboxamide]	110	50
CCCCN(CCCC)C(=O)c1nn(-c2ccc(C(=O)NS(=O)(=O)c3ccc4c(c3)CCN4C(=O)N3CCOCC3)cc2C(=O)N2CCc3ccccc3C2)c(C)c1Cl [Example 74, N,N-dibutyl-4-chloro-5-methyl-1-(4-(1-(morpholine-4-carbonyl)indolin-5-ylsulfonylcarbamoyl)-2-(1,2,3,4-tetrahydroisoquinoline-2-carbonyl)phenyl)-1H-pyrazole-3-carboxamide]	60	340
CCCCN(CCCC)C(=O)c1nn(-c2ccc(C(=O)NS(=O)(=O)c3ccc4c(ccn4CCCN4CCOCC4)c3)cc2C(=O)N2CCc3ccccc3C2)c(C)c1Cl [Example 82, N,N-dibutyl-4-chloro-5-methyl-1-(4-(1-(3-morpholinopropyl)-1H-indol-5-ylsulfonylcarbamoyl)-2-(1,2,3,4-tetrahydroisoquinoline-2-carbonyl)phenyl)-1H-pyrazole-3-carboxamide]	30	390
CCCCN(CCCC)C(=O)c1nn(-c2ccc(C(=O)NS(=O)(=O)c3ccc4c(c3)c(Cl)cn4CC)cc2C(=O)N2CCc3ccccc3C2)c(C)c1Cl [Example 83, N,N-dibutyl-4-chloro-1-(4-(3-chloro-1-ethyl-1H-indol-5-ylsulfonylcarbamoyl)-2-(1,2,3,4-tetrahydroisoquinoline-2-carbonyl)phenyl)-5-methyl-1H-pyrazole-3-carboxamide]	40	20
CCCCN(CCCC)C(=O)c1nn(-c2ccc(C(=O)NS(=O)(=O)c3ccc4c(c3)c(I)cn4CC)cc2C(=O)N2CCc3ccccc3C2)c(C)c1Cl [Example 84, N,N-dibutyl-4-chloro-1-(4-(1-ethyl-3-iodo-1H-indol-5-ylsulfonylcarbamoyl)-2-(1,2,3,4-tetrahydroisoquinoline-2-carbonyl)phenyl)-5-methyl-1H-pyrazole-3-carboxamide]	80	7.69
CCCCN(CCCC)C(=O)c1nn(-c2ccc(C(=O)NS(=O)(=O)c3cc(Br)c4c(c3)c(Br)cn4CC)cc2C(=O)N2CCc3ccccc3C2)c(C)c1Cl [Example 85, N,N-dibutyl-4-chloro-1-(4-(3,7-dibromo-1-ethyl-1H-indol-5-ylsulfonylcarbamoyl)-2-(1,2,3,4-tetrahydroisoquinoline-2-carbonyl)phenyl)-5-methyl-1H-pyrazole-3-carboxamide]	20	4.19
CCCCN(CCCC)C(=O)c1nn(-c2ccc(C(=O)NS(=O)(=O)c3ccc4ccccc4c3)cc2C(=O)N2Cc3ccccc3C[C@H]2CN)c(C)c1Cl [Example 92, 1-(2-((S)-3-(Aminomethyl)-1,2,3,4-tetrahydroisoquinoline-2-carbonyl)-4-(naphthalen-2-ylsulfonylcarbamoyl)phenyl)-N,N-dibutyl-4-chloro-5-methyl-1H-pyrazole-3-carboxamide]	10	8.41
CCCCN(CCCC)C(=O)c1nn(-c2ccc(C(=O)NS(=O)(=O)c3ccc4ccccc4c3)cc2C(=O)N2Cc3ccccc3C[C@@H]2C(=O)O)c(C)c1Cl [Example 93, (3R)-2-(2-(4-Chloro-3-(dibutylcarbamoyl)-5-methyl-1H-pyrazol-1-yl)-5-(naphthalen-2-ylsulfonylcarbamoyl)benzoyl)-1,2,3,4-tetrahydroisoquinoline-3-carboxylic acid]	200	1650
CCCCN(CCCC)C(=O)c1nn(-c2ccc(C(=O)NS(=O)(=O)c3ccc4ccccc4c3)cc2C(=O)N2COc3ccccc3C2)c(C)c1Cl [Example 96, N,N-Dibutyl-4-chloro-1-(2-(3,4-dihydro-2H-benzo[e][1,3]oxazine-3-carbonyl)-4-(naphthalen-2-ylsulfonylcarbamoyl)phenyl)-5-methyl-1H-pyrazole-3-carboxamide]	60	120
CCCCN(CCCC)C(=O)c1nn(-c2ccc(C(=O)NS(=O)(=O)c3ccc4ccccc4c3)cc2C(=O)N2CCc3ccc(C(=O)O)cc3C2)c(C)c1Cl [Example 100, 2-(2-(4-Chloro-3-(dibutylcarbamoyl)-5-methyl-1H-pyrazol-1-yl)-5-(naphthalen-2-ylsulfonylcarbamoyl)benzoyl)-1,2,3,4-tetrahydroisoquinoline-7-carboxylic acid]	3510	4710
CCCCN(CCCC)C(=O)c1nn(-c2ccc(C(=O)NS(=O)(=O)c3ccc4ccccc4c3)cc2C(=O)N2Cc3ccccc3S(=O)(=O)C2)c(C)c1Cl [Example 104, N,N-Dibutyl-4-chloro-1-(2-(1,1-dioxido-3,4-dihydro-2H-benzo[e][1,3]thiazine-3-carbonyl)-4-(naphthalen-2-ylsulfonylcarbamoyl)phenyl)-5-methyl-1H-pyrazole-3-carboxamide]	130	440
